Experimental data from patent US10442791B2, “DNA-PK inhibitors” (Vertex Pharmaceuticals Incorporated, priority 2012, dated 2019).

These molecules were tested against DNA-PK (Homo sapiens, UniProt P78527) (assay: DNA-PK inhibition assay (radiometric 33P-ATP kinase assay)). Settings: 100 μM ATP; competitive tight-binding fit.
Format: biochemical
Description: Compounds were screened for their ability to inhibit DNA-PK kinase using a standard radiometric assay. Briefly, in this kinase assay the transfer of the terminal ^33P-phosphate in ^33P-ATP to a peptide substrate is interrogated. The assay was carried out in 384-well plates to a final volume of 50 μL per well containing approximately 6 nM DNA-PK, 50 mM HEPES (pH 7.5), 10 mM MgCl2, 25 mM NaCl, 0.01% BSA, 1 mM DTT, 10 μg/mL sheared double-stranded DNA (obtained from Sigma), 0.8 mg/mL DNA-PK peptide ([…] obtained from American Peptide), and 100 μM ATP. Accordingly, compounds of the invention were dissolved in DMSO to make 10 mM initial stock solutions. Serial dilutions in DMSO were then made to obtain the final solutions for the assay. A 0.75 μL aliquot of DMSO or inhibitor in DMSO was added to each well, followed by the addition of ATP substrate solution containing ^33P-ATP (obtained from Perkin Elmer). The reaction was started by the addition of DNA-PK, peptide and ds-DNA. After 45 min. the reaction was quenched with 25 μL of 5% phosphoric acid. The reaction mixture was transferred to MultiScreen HTS 384-well PH plates (obtained from Millipore), allowed to bind for one hour, and washed three times with 1% phosphoric acid. Following the addition of 50 μL of Ultima Gold™ high efficiency scintillant (obtained from Perkin Elmer), the samples were counted in a Packard TopCount NXT Microplate Scintillation and Luminescence Counter (Packard BioScience). The Ki values were calculated using Microsoft Excel Solver macros to fit the data to the kinetic model for competitive tight-binding inhibition.
With `CNC(=O)c1ccnc2c([C@H](C)CNc3cc(-c4ccc(N(C)C5CCN(CC(F)(F)F)CC5)nc4)ncn3)cccc12` [Compound 1042] the Ki was < 30 nM.
For `CNC(=O)c1c(F)cnc2c([C@H](C)CNc3cc(-c4ccc(CC5CCN(CC(F)F)CC5)nc4)ncn3)cccc12` [Compound 1043], the Ki was < 30 nM.
In the case of `CNC(=O)c1c(F)cnc2c([C@H](C)CNc3cc(-c4cnc(CC5CCN(C(C)=O)CC5)nc4)ncn3)cccc12` [Compound 1044], the Ki is reported as < 30 nM.
`CNC(=O)c1ccnc2c([C@H](C)CNc3cc(-c4cnc(CC5CCN(CC(F)F)CC5)nc4)ncn3)cccc12` [Compound 1045] was tested, and the Ki was < 30 nM.
In the case of `CNC(=O)c1c(F)cnc2c([C@H](C)CNc3cc(-c4cnc(CC5CCN(CC(F)F)CC5)nc4)ncn3)cccc12` [Compound 1046], the Ki is reported as < 30 nM.
For `CNC(=O)c1ccnc2c([C@H](C)CNc3cc(-c4cnc(CC5CCN(CC(F)(F)F)CC5)nc4)ncn3)cccc12` [Compound 1047], the Ki was < 30 nM.
With `CNC(=O)c1c(F)cnc2c([C@H](C)CNc3cc(-c4cnc(CC5CCN(CC(F)(F)F)CC5)nc4)ncn3)cccc12` [Compound 1048] the Ki was < 30 nM.
In the case of `CNC(=O)c1c(F)cnc2c([C@H](C)CNc3cc(-c4cnc(OC5CCN(C)CC5)nc4)ncn3)cccc12` [Compound 1050], the Ki is reported as < 30 nM.
For `CNC(=O)c1ccnc2c([C@H](C)CNc3cc(-c4cnc(NCCNC(C)=O)nc4)ncn3)cccc12` [Compound 1051], the Ki was < 30 nM.
With `CNC(=O)c1c(F)cnc2c([C@H](C)CNc3cc(-c4cnc(NCCNC(C)=O)nc4)ncn3)cccc12` [Compound 1052] the Ki was < 30 nM.
With `CNC(=O)c1ccnc2c([C@H](C)CNc3cc(-c4cnc(NCCNC(C)=O)nc4)ncn3)ccc(F)c12` [Compound 1053] the Ki was < 30 nM.
With `CNC(=O)c1ccnc2c([C@H](C)CNc3cc(-c4cnc(NCC(F)(F)F)nc4)ncn3)ccc(F)c12` [Compound 1054] the Ki was < 30 nM.
With `CNC(=O)c1ccnc2c([C@H](C)CNc3cc(-c4cnc(NC5CCN(C(C)=O)CC5)nc4)ncn3)ccc(F)c12` [Compound 1055] the Ki was < 30 nM.
In the case of `CNC(=O)c1ccnc2c([C@H](C)CNc3cc(-c4cnc(N(C)C5CCN(C)CC5)nc4)ncn3)cccc12` [Compound 1057], the Ki is reported as < 30 nM.
`CNC(=O)c1c(F)cnc2c([C@H](C)CNc3cc(-c4cnc(N(C)C5CCN(C)CC5)nc4)ncn3)cccc12` [Compound 1058] was tested, and the Ki was < 30 nM.
For `CNC(=O)c1c(F)cnc2c([C@H](C)CNc3cc(-c4cnc(N(C)C5CCN(C(C)=O)CC5)nc4)ncn3)cccc12` [Compound 1059], the Ki was < 30 nM.
For `CNC(=O)c1ccnc2c([C@H](C)CNc3cc(-c4cnc(N(C)C5CCN(CC(F)F)CC5)nc4)ncn3)cccc12` [Compound 1060], the Ki was < 30 nM.
In the case of `CNC(=O)c1ccnc2c([C@H](C)CNc3cc(-c4cnc(N(C)C5CCN(CC(F)(F)F)CC5)nc4)ncn3)cccc12` [Compound 1061], the Ki is reported as < 30 nM.
With `CNC(=O)c1c(F)cnc2c([C@H](C)CNc3cc(-c4cnc(N(C)C5CCN(CC(F)F)CC5)nc4)ncn3)cccc12` [Compound 1062] the Ki was < 30 nM.
`CNC(=O)c1c(F)cnc2c([C@H](C)CNc3cc(-c4ccc(NC5CCN(C)CC5)nc4)ncn3)cccc12` [Compound 1063] was tested, and the Ki was < 30 nM.
In the case of `CNC(=O)c1ccnc2c([C@H](C)CNc3cc(-c4ccc(NC5CCN(C(C)=O)CC5)nc4)ncn3)cccc12` [Compound 1064], the Ki is reported as < 30 nM.
`CNC(=O)c1c(F)cnc2c([C@H](C)CNc3cc(-c4ccc(NC5CCN(C(C)=O)CC5)nc4)ncn3)cccc12` [Compound 1065] was tested, and the Ki was < 30 nM.
For `CNC(=O)c1ccnc2c([C@H](C)CNc3cc(-c4cnc(NCC(F)(F)F)nc4)ncn3)cccc12` [Compound 1066], the Ki was < 30 nM.
`CNC(=O)c1ccnc2c([C@H](C)CNc3cc(-c4ccc(C5(O)COC5)nc4)ncn3)cccc12` [Compound 1067] was tested, and the Ki was < 30 nM.
`CNC(=O)c1c(F)cnc2c([C@H](C)CNc3cc(-c4ccc(C5(O)COC5)nc4)ncn3)cccc12` [Compound 1068] was tested, and the Ki was < 30 nM.
For `CNC(=O)c1ccnc2c([C@H](C)CNc3cc(-c4ccc(C5(O)COC5)nc4)ncn3)ccc(F)c12` [Compound 1069], the Ki was < 30 nM.
For `CNC(=O)c1ccnc2c([C@H](C)CNc3cc(-c4cnc(CC5CCN(C(C)=O)CC5)nc4)ncn3)cccc12` [Compound 1071], the Ki was < 30 nM.
For `CNC(=O)c1ccnc2c([C@H](C)CNc3cc(-c4cnc(OC5CCN(C)CC5)nc4)ncn3)ccc(F)c12` [Compound 1073], the Ki was < 30 nM.
In the case of `CNC(=O)CNc1ncc(-c2cc(NC[C@@H](C)c3cccc4c(C(=O)NC)ccnc34)ncn2)cn1` [Compound 1074], the Ki is reported as < 30 nM.
With `CNC(=O)CNc1ncc(-c2cc(NC[C@@H](C)c3cccc4c(C(=O)NC)c(F)cnc34)ncn2)cn1` [Compound 1075] the Ki was < 30 nM.
With `CNC(=O)c1c(F)cnc2c([C@H](C)CNc3cc(-c4cnc(NCC(=O)N(C)C)nc4)ncn3)cccc12` [Compound 1076] the Ki was < 30 nM.
`CNC(=O)c1ccnc2c([C@H](C)CNc3cc(-c4cnc(NCC(=O)N(C)C)nc4)ncn3)cccc12` [Compound 1077] was tested, and the Ki was < 30 nM.
`CNC(=O)c1ccnc2c([C@H](C)CNc3cc(-c4cnc(NC5CCN(C)CC5)nc4)ncn3)cccc12` [Compound 1078] was tested, and the Ki was < 30 nM.
`CNC(=O)c1c(F)cnc2c([C@H](C)CNc3cc(-c4cnc(NC5CCN(C)CC5)nc4)ncn3)cccc12` [Compound 1079] was tested, and the Ki was < 30 nM.
In the case of `CNC(=O)c1ccnc2c([C@H](C)CNc3cc(-c4cnc(NC5CCN(CC(F)(F)F)CC5)nc4)ncn3)cccc12` [Compound 1080], the Ki is reported as < 30 nM.
With `CNC(=O)c1ccnc2c([C@H](C)CNc3cc(-c4cnc(N(C)C5CCN(C(C)=O)CC5)nc4)ncn3)cccc12` [Compound 1081] the Ki was < 30 nM.
With `CNC(=O)c1c(F)cnc2c([C@H](C)CNc3cc(-c4cnc(N(C)C5CCN(CC(F)(F)F)CC5)nc4)ncn3)cccc12` [Compound 1082] the Ki was < 30 nM.
In the case of `CNC(=O)c1ccnc2c([C@H](C)CNc3cc(-c4ccc(NC5CCN(CC(F)F)CC5)nc4)ncn3)cccc12` [Compound 1083], the Ki is reported as < 30 nM.
`CNC(=O)c1c(F)cnc2c([C@H](C)CNc3cc(-c4ccc(NC5CCN(CC(F)F)CC5)nc4)ncn3)cccc12` [Compound 1084] was tested, and the Ki was < 30 nM.
`CNC(=O)c1ccnc2c([C@H](C)CNc3cc(-c4ccc(NC5CCN(CC(F)(F)F)CC5)nc4)ncn3)cccc12` [Compound 1085] was tested, and the Ki was < 30 nM.
`CNC(=O)c1c(F)cnc2c([C@H](C)CNc3cc(-c4ccc(NC5CCN(CC(F)(F)F)CC5)nc4)ncn3)cccc12` [Compound 1086] was tested, and the Ki was < 30 nM.
In the case of `CNC(=O)c1c(F)cnc2c([C@H](C)CNc3cc(-c4ccc(N(C)C5CCN(C)CC5)nc4)ncn3)cccc12` [Compound 1087], the Ki is reported as < 30 nM.
In the case of `CNC(=O)c1ccnc2c([C@H](C)CNc3cc(-c4ccc(N(C)C5CCN(C(C)=O)CC5)nc4)ncn3)cccc12` [Compound 1088], the Ki is reported as < 30 nM.
`CNC(=O)c1c(F)cnc2c([C@H](C)CNc3cc(-c4ccc(N(C)C5CCN(CC(F)F)CC5)nc4)ncn3)cccc12` [Compound 1089] was tested, and the Ki was < 30 nM.
With `CNC(=O)c1c(F)cnc2c([C@H](C)CNc3cc(-c4ccc(N(C)C5CCN(CC(F)(F)F)CC5)nc4)ncn3)cccc12` [Compound 1090] the Ki was < 30 nM.
